{"source": "patent US10159254B2", "about": "“Weed control methods” (Syngenta Participations AG, priority 2013, dated 2018)", "test_system": "Velvetleaf (Abutilon theophrasti)", "assay": "Greenhouse weed control: HPPD inhibitors with or without Sequestrene 138Fe, velvetleaf", "format": "in vivo", "conditions": "percent velvetleaf control 19 DAT", "procedure": "Effect of Tank Mix Applications of HPPD Inhibitors and Sequestrene® 138Fe on Velvetleaf Control. Percent Control Assessed 19 DAT\nA greenhouse experiment is conducted to determine the effect of chelated iron on weed control in the greenhouse. Velvetleaf (Abutilon theophrasti) and common waterhemp (Amaranthus rudis) plants are grown in 4×4-inch pots filled with a greenhouse potting mix. When the plants reached the 2 to 3 inch height (2 to 3 leaf stage), they are sprayed with a reduced rate of an HPPD inhibitor alone or in a tank mix combination with Sequestrene 138Fe at 140 g/ha (equivalent to 8.4 g iron/hectare) or 280 g/ha (equivalent to 16.8 g iron/hectare). […] Observations on percent control are recorded 12, 19, and 25 days after treatment."}
{"compound": "CS(=O)(=O)c1ccc(C(=O)C2C(=O)CCCC2=O)c([N+](=O)[O-])c1", "note": "[Mesotrione, mesotrione]", "values": [{"measurement": "% Injury", "setting": "Sequestrene 138Fe 0 g/ha, g ai/ha: mesotrione 26, isoxaflutole 26, bicyclopyrone 50, tembotrione 46, pyrasulfatole 22, topramezone 18", "value": 100, "unit": "%"}, {"measurement": "% Injury", "setting": "Sequestrene 138Fe 140 g/ha tank mix, mesotrione 26, isoxaflutole 26 g ai/ha", "value": 100, "unit": "%"}]}
